Measurements taken from patent publication US20060293351A1, “Promotion of wound healing” (priority 1999, published 2006).
Where two headings read alike, the source gives them in different places.

Tests used:
[1] = tested on: chickens; conditions: in vivo; cited from earlier work
[2] = tested on: collagen; test: Collagen content at the stricture site (Sirius red staining); format: in vivo, rats
Description: The experiments were performed as follows. First, urethral catherization was performed on tile rats with a 23 G Quik-Cath (Baxter, Ireland) sheath. A spinal needle was inserted into the sheath, and was used to apply a coagulation current at a level of 10 W to the outer end of the needle for 1 second at three locations, 8, 10 and 12 mm from the meatus, in order to produce urethral strictures. Halofuginone was given for 7 days starting at the day of stricture formation, either orally at concentrations of 1 ppm and 5 ppm in the diet, or by injection of 0.03% Halofuginone dissolved in 2% lignocaine directly into the urethra once a day. After 21 days, the rats were sacrificed and the sutures were reopened to determine the level of urethral stricture formation, at which time biopsies of the tissue were taken. The tissue was sectioned so that histological studies could be performed. Briefly, the tissue samples were collected into phosphate-buffered saline (PBS) and fixed overnight in 4% paraformaldehyde in PBS at 4° C. Serial 5 μm sections were prepared after the samples had been dehydrated in graded ethanol solutions, cleared in chloroform and embedded in Paraplast. Differential staining of collagenous and non-collagenous proteins was performed with 0.1% Sirius red and 0.1% fast green as a counter-stain in picric acid. […]

[3] = tested on: collagen type III; test: Collagen type III immunohistochemistry at the stricture site; format: in vivo, rats; conditions: diet containing Halofuginone after coagulation current treatment
Description: Immunohistochemistry with antibodies to collagen type III was performed on biopsies taken from control, untreated rats, rats treated with coagulation current alone and rats fed a diet containing Halofuginone after coagulation current treatment. […] The experimental method was as follows. Rats were treated and sections of biopsy tissue were prepared as described previously in Example 4. Immunohistochemistry was performed with primary antibodies against collagen type III (BioGenex. San Ramon, Calif., USA) and a Histomouse SP kit (Zymed Laboratories Inc., South San Francisco, Calif., USA) for the secondary antibodies. The primary antibodies were used in a 1:1000 dilution and detection was performed with the Histomouse SP kit according to the instructions of the manufacturer.

[4] = tested on: skin wound; test: Wound strength (bursting point, Instron tensiometer); format: in vivo, rats; conditions: irradiated or not; one or six injections
Description: Wound strength was assessed by preparing rats substantially as described above, except that one group of rats (not irradiated) only received one injection of Halofuginone after wounding. The strength of wounds was measured as follows. First, a square of skin which was approximately 20 mm long and 16 mm wide, and which included the main part of the wound, was excised from sacrificed rats. Next, the skin was cut, perpendicular to the wound, to yield 7 strips of skin, each of which was 2 mm wide. The skin strips were secured between paper reinforcement frames and loaded on an Instron tensiometer for stretching at a constant rate of 25 mm/min. The bursting point was then recorded.

[5] = tested on: urethral strictures; format: in vivo, rats
Excerpt: Tile effect of Halofuginone in post-trauma stricture formation in rats was studied. Briefly, urethral strictures were induced by catheterization and application of an electrical current to the urethra of rats. The rats were divided into four groups: untreated rats as controls (FIG. 5A); rats treated with Halofuginone but not with coagulation current (FIG. 5B); rats treated with coagulation current alone (FIG. 5C); and rats treated with both Halofuginone and coagulation current (FIG. 5D-5F).
The experiments were performed as follows. First, urethral catherization was performed on anesthetized rats with a 23 G Quik-Cath (Baxter, Ireland) sheath. A spinal needle was inserted into the sheath, and was used to apply a coagulation current at a level of 10 W to the outer end of the needle for 1 second at three locations, 8, 10 and 12 mm from the meatus, in order to produce urethral strictures. Halofuginone was given for 7 days starting at the day of stricture formation, either orally at concentrations of 1 ppm and 5 ppm in the diet, or by injection of 0.03% Halofuginone dissolved in 2% lignocaine directly into the urethra once a day. Urethral gross morphology was evaluated by urethrogram after injecting contrast material (Telebrix Megalumine 300 mg/ml. Laboratorie, Guerbet, Aulnay Sous Bios, France) into the anesthetized rat through a 23 G Quik-Cath sheath, under fluoroscopy 3 weeks after stricture formation.

Compound: O=C(CC1NCCC[C@H]1O)Cn1cnc2cc(Br)c(Cl)cc2c1=O (stereo partly drawn) [Halofuginone]
- skin tearing [1]: increased skin tearing
- amount of collagen in the biopsies ([2]; given locally (FIG. 7D)): decreased the amount of collagen
- amount of collagen in the biopsies ([2]; given orally (FIG. 7C)): decreased the amount of collagen
- levels of collagen type III [3]: No significant changes
- wound strength [4]: did not reduce wound strength
- stricture formation ([5]; 1 ppm in the diet for 7 days with coagulation treatment): did not affect stricture formation
- stricture formation ([5]; 5 ppm in the diet for 7 days with coagulation treatment): did not have strictures
- stricture formation ([5]; locally administered (0.03% in 2% lignocaine into the urethra once a day, 7 days) with coagulation treatment): did not have strictures
- stricture formation ([5]; rat, in vivo): did not have any strictures
